Literature values as cited in US20190374552A1, “MULTIFUNCTIONAL FORMULATIONS AND METHODS TO CONTROL DERMATITIS AND PRURITUS” (priority 2016, published 2019).
“Also recorded” adds a separate entry of the source. Blank lines part the entries; values can stand above or below the compound they belong to.

How the values were obtained:
human TRPM8 (hTRPM8) = human TRPM8 (hTRPM8) (Homo sapiens, UniProt Q7Z2W7)
TRPV1 [1] = target: T1, TRPV1 (Homo sapiens, UniProt Q8NER1)
Target sequence in this assay (Q8NER1 whole entry): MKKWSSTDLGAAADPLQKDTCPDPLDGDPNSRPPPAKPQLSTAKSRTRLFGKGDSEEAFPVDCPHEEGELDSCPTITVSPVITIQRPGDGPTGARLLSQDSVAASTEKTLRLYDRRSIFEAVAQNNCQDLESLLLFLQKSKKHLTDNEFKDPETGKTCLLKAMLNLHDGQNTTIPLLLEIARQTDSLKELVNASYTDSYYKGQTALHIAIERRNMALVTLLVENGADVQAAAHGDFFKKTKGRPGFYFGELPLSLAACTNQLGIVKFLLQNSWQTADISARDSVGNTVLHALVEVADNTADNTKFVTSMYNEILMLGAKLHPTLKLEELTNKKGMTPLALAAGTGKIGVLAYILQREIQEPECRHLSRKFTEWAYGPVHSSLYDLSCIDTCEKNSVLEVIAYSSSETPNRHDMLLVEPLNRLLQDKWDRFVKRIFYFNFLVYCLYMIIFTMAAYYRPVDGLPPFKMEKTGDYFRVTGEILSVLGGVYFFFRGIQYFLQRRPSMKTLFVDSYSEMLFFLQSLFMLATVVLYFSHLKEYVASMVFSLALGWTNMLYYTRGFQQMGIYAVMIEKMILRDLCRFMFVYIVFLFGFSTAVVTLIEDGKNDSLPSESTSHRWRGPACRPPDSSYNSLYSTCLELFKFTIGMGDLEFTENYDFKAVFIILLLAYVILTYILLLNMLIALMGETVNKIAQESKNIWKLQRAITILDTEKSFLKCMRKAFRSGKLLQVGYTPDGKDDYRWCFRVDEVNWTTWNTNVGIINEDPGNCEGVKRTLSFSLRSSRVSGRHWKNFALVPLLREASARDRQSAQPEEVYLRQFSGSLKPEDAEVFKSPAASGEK

hTRPV2 = target: T2, hTRPV2 (Homo sapiens, UniProt Q9Y5S1)
T2 sequence (Q9Y5S1 1-764): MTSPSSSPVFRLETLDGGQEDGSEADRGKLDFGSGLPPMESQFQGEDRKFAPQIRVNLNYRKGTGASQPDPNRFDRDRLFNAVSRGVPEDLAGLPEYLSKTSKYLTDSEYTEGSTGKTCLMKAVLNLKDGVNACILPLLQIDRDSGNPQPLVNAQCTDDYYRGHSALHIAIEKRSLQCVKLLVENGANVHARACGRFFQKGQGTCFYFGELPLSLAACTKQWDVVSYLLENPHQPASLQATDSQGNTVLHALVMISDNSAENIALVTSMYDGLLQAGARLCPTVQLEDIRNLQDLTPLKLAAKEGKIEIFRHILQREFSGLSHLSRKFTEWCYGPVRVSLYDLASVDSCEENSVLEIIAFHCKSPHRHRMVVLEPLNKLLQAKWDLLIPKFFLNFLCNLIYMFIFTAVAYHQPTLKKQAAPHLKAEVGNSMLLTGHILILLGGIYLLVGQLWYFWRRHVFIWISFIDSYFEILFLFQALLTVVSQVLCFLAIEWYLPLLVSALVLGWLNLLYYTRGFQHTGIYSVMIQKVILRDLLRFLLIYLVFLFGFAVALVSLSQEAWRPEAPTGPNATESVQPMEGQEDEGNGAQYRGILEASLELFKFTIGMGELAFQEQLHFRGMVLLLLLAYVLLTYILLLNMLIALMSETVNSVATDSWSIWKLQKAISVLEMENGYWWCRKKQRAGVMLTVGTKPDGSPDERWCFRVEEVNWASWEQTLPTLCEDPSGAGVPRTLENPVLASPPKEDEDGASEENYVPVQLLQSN

TRPA1 [2] = target: T3, TRPA1 (Homo sapiens, UniProt O75762)
Target sequence in this assay (O75762 whole entry): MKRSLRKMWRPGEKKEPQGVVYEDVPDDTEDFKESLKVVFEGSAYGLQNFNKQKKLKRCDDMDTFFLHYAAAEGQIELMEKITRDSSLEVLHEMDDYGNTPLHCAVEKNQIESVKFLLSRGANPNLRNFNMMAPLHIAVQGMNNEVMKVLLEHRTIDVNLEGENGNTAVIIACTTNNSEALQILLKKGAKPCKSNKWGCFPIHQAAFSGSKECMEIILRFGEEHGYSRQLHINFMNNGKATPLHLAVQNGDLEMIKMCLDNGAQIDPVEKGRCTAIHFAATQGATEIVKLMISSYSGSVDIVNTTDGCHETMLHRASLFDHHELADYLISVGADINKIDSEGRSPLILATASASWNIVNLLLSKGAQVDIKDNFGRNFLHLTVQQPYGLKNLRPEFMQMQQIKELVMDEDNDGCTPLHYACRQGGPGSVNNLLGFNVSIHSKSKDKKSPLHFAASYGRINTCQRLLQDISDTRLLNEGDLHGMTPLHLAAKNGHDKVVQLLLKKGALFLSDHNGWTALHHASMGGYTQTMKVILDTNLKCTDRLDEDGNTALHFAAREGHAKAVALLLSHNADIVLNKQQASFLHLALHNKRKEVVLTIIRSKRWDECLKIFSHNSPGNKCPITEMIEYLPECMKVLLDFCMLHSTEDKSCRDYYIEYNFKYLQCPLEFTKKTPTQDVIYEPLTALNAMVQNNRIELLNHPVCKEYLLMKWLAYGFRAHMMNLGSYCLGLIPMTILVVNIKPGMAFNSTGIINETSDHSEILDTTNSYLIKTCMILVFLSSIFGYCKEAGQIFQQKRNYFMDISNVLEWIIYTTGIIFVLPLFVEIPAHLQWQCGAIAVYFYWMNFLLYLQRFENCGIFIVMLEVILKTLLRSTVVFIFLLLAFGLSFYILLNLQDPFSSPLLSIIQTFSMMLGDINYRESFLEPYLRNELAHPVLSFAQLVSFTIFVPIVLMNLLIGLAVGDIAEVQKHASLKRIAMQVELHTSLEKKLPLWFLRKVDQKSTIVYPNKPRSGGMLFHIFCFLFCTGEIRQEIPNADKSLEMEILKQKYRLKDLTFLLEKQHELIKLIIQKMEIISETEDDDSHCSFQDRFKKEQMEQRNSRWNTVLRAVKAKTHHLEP

TRPA1 [3] = target: T3, TRPA1; conditions: for inhibition of hTRPA1 activation by menthol and allyl isothiocyanate: compound at 1 mM, menthol 1 mM, allyl isothiocyanate 10 uM
Target sequence in this assay (O75762 whole entry): as above

TRPA1 [4] = target: T3, TRPA1; remark: listed apart in the source
Target sequence in this assay (O75762 whole entry, species assumed): as the sequence (O75762 whole entry) above

TRPV1 [5] = target: T1, TRPV1; remark: listed apart in the source
Target sequence in this assay (Q8NER1 whole entry, species assumed): as the sequence (Q8NER1 whole entry) above

histaminergic itch = conditions: topical application, human trials
scratching behavior ACD = conditions: mice exposed to haptens oxazolone and urushiol
TRPV1 [6] = target: TRPV1 (Rattus norvegicus, UniProt O35433); conditions: compared with docosahexaenoic acid
Chain of TRPV1 (Rattus norvegicus, UniProt O35433) (O35433 whole entry): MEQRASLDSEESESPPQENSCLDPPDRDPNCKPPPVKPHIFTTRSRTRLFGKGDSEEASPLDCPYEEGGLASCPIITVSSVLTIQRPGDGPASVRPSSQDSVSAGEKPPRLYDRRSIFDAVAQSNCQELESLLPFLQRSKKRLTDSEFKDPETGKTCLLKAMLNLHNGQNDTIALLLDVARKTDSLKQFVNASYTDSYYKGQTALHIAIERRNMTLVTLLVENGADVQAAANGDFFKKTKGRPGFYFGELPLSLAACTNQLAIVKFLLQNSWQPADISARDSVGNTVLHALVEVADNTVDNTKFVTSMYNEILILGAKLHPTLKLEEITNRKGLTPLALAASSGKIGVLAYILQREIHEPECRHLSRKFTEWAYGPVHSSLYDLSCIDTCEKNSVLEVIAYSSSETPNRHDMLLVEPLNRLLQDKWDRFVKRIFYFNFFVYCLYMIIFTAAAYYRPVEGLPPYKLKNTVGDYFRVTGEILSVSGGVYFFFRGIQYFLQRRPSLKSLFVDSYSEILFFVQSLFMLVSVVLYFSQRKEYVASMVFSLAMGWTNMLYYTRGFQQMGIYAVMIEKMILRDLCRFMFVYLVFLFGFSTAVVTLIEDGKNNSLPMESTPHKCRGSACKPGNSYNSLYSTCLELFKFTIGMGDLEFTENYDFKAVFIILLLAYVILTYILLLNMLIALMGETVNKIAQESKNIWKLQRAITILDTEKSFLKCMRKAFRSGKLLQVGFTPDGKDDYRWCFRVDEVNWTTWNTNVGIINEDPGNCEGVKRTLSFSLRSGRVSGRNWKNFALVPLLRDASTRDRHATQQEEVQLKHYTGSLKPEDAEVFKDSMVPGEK

leukocyte migration = conditions: induced by injection of carrageenan
TRPV1 [7] = system: TRPV1
pain and itch responses = conditions: mice
TRPM8 = TRPM8 (Homo sapiens, UniProt Q7Z2W7)
Chain of TRPM8 (Q7Z2W7 whole entry, species assumed): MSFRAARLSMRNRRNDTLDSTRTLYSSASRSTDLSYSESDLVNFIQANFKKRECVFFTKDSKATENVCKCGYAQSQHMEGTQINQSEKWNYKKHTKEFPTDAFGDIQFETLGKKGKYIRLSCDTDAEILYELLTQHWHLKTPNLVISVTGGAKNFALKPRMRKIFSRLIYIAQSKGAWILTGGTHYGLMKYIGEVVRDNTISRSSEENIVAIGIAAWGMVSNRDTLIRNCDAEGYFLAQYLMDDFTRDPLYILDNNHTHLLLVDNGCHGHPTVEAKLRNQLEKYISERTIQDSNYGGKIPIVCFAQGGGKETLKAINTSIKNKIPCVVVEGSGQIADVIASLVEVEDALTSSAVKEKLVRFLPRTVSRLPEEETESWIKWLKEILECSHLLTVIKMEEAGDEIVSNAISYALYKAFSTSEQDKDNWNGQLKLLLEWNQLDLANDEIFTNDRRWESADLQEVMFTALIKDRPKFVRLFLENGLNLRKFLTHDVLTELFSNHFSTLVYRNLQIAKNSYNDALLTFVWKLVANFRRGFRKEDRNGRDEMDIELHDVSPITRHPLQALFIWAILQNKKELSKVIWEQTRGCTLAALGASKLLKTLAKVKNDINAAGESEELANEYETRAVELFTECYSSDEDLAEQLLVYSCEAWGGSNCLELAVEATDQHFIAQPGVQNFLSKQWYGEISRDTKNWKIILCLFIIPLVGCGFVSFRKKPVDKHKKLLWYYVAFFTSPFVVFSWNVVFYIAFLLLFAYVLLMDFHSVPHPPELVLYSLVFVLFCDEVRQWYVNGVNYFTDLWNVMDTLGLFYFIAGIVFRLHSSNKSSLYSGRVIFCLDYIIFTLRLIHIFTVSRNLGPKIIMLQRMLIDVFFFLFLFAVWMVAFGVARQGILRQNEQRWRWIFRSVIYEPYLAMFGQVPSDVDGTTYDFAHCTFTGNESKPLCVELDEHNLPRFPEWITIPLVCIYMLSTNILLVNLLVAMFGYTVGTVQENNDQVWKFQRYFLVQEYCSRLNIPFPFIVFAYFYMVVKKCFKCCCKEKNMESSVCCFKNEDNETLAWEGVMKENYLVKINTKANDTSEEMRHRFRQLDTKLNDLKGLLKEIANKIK

TRPV1 [8] = target: T1, TRPV1; remark: listed apart in the source
Target sequence in this assay (Q8NER1 whole entry, species assumed): as the sequence (Q8NER1 whole entry) above

TRPA1 [9] = target: T3, TRPA1; remark: listed apart in the source
Target sequence in this assay (O75762 whole entry, species assumed): as the sequence (O75762 whole entry) above

Chain of human TRPM8 (hTRPM8) (Q7Z2W7 whole entry): as the sequence (Q7Z2W7 whole entry, species assumed) above

- block of TRPA1 agonist AITC (TRPA1 [4]): blocked
- block of TRPV1 agonist capsaicin (TRPV1 [5]): blocked
Compound: O=C(CCCCC1CCSS1)NCCC(=O)NC(Cc1cnc[nH]1)C(=O)O (stereo not shown) [ADM 09]

- inhibition of hTRPA1 activation by menthol and allyl isothiocyanate (TRPA1 [3]): completely inhibited
- activation of hTRPA1 (TRPA1 [2]): did not activate
Compound: CC1(C)C2CCC1(C)C(O)C2 (stereo not shown) [borneol]
- leukocyte migration (leukocyte migration): reduce
- inhibition of TNF-a and IL-6 (TNF-a and IL-6): inhibits

- activation of hTRPA1 (TRPA1 [2]): did not activate
Compound: CC12CCC(CC1=O)C2(C)C (stereo not shown) [camphor]

- activation of hTRPA1 (TRPA1 [2]): did not activate
Compound: O=C1CC2CC[C@H]1C2 [norcamphor]

Second part, the compound before the results:

Compound: CC12CCC(CC1)C(C)(C)O2 [1,8-cineole]
- activation of hTRPM8 (human TRPM8 (hTRPM8)): activates
- activation of hTRPV1 (TRPV1 [1]): did not activate
- activation of hTRPV2 (hTRPV2): did not activate
- release of IL-I β, IL-4, IL-5 and TNF-a (stimulated lymphocytes): decreased
- activation of hTRPA1 (TRPA1 [2]): did not activate

Compound: CC1(C)[C@@H]2CC[C@@]1(C)[C@](C)(O)C2 [2-methylosoborneol]
- IC50 (TRPA1 [3]; TRPA1 activation by 20 uM AITC, read-out: IC-50 concentration, inactivation of TRPA1 activation): 120 µM
- inhibition of hTRPA1 activation by menthol and allyl isothiocyanate (TRPA1 [3]): completely inhibited
- activation of hTRPA1 (TRPA1 [2]): did not activate

Compound: CC1CCC(C(C)C)C(O)C1 (stereo not shown) [Example 1-menthol, 1-menthol]
- activation of hTRPM8 (human TRPM8 (hTRPM8)): activation
- effect on histaminergic / experimentally induced itch (histaminergic itch): significant inhibitory effects; also recorded: significant and pronounced anti-pruritic effect; also recorded: relieved
- activation of hTRPA1 (TRPA1 [2]): activated

Compound: CC(C)c1ccc(NC(=O)Cn2cnc3c2c(=O)n(C)c(=O)n3C)cc1 [HC-030031]
- scratching behavior (scratching behavior ACD): inhibition of scratching

Compound: CC/C=C\C/C=C\C/C=C\CCCCCCCC(=O)O [a-linolenic acid]
- TRPV1 inhibition (TRPV1 [6]): markedly more effective inhibitors

Compound: CC12CCC(C1)C(C)(C)C2O (stereo not shown) [fenchyl alcohol]
- inhibition of hTRPA1 activation by menthol and allyl isothiocyanate (TRPA1 [3]): completely inhibited
- activation of hTRPA1 (TRPA1 [2]): did not activate

Compound: CCCCCCCC/C=C\CCCCCCCC(=O)O [oleic acid]
- TRPV1 activity (TRPV1 [7]): inhibited
- pain and itch responses (pain and itch responses): inhibited

Compound: Hyaluronan [HA]
- TRPM8 channel function (TRPM8): not affected
- TRPV1 channel activity (TRPV1 [8]): inhibits
- TRPA1 channel function (TRPA1 [9]): not affected
